According to PubChem BioAssay (NCI):
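Values below derive from 48-hour exposures of cells grown in 96-well plates, with endpoints linearly interpolated between the two concentrations bracketing the appropriate inhibition level. GI50 marks 50% less growth. TGI: concentration producing complete growth inhibition.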

What was measured:
Experiment in all cases: inhibition of tumour cell growth, NCI panel, 48 h
SR leukemia = system: SR leukemia
NCI-H460 lung = system: NCI-H460 lung
SK-MEL-28 melanoma = system: SK-MEL-28 melanoma
MDA-MB-231 breast = system: MDA-MB-231 breast
ACHN renal = system: ACHN renal
COLO 205 colon = system: COLO 205 colon
A549 NSCLC = system: A549 NSCLC
BT-549 breast = system: BT-549 breast
HCT-116 colon = system: HCT-116 colon
SNB-75 CNS = system: SNB-75 CNS

Compound | GI50 (SR leukemia) [µM] | TGI (SR leukemia) [µM] | GI50 (NCI-H460 lung) [µM] | TGI (NCI-H460 lung) [µM] | GI50 (SK-MEL-28 melanoma) [µM] | TGI (SK-MEL-28 melanoma) [µM] | GI50 (MDA-MB-231 breast) [µM] | TGI (MDA-MB-231 breast) [µM] | GI50 (ACHN renal) [µM] | TGI (ACHN renal) [µM] | GI50 (COLO 205 colon) [µM] | TGI (COLO 205 colon) [µM] | GI50 (A549 NSCLC) [µM] | TGI (A549 NSCLC) [µM] | GI50 (BT-549 breast) [µM] | TGI (BT-549 breast) [µM] | GI50 (HCT-116 colon) [µM] | TGI (HCT-116 colon) [µM] | GI50 (SNB-75 CNS) [µM] | TGI (SNB-75 CNS) [µM]
Fc1cc2[nH]ncc2c2c3c(c(-c4cn[nH]c4)nc12)CCCC3 | 0.355 | > 100 | 0.845 | 4.69 | 1.19 | 3.88 | 1.5 | 5.24 | 0.327 | 10.3 | 0.658 | 2.62 | 0.844 | > 100 | 1.38 | 4.94 | 0.498 | > 37.5 | 0.994 | 2.32
C=C1NC(=O)C(C(C)CC)NC(=O)C2CSCC(NC(=O)CCC(=O)O)C(=O)NC(Cc3ccccc3)C(=O)NC(C)C(=O)NC(CC(C)CC)C(=O)NC(C(=O)NC(Cc3ccccc3)C(=O)N3CCCC3C(=O)N2)C(C)OC(=O)C(CO)NC(=O)C(C(O)COC)N(C)C(=O)C(C(C)C)NC(=O)C(CC(C)CC)NC1=O (centres undefined) | 0.0259 | > 6 | 0.00439 | > 6 | > 6 | > 6 | 0.0201 | 3.24 | 0.0553 | > 6 | 0.0129 | 0.0557 | 0.0268 | > 6 | 0.0728 | > 6 | 0.0137 | > 6 | 0.0048 | > 6
CC[C@H](Nc1ncnc2nc[nH]c12)c1oc2ccccc2c(=O)c1-c1cccc(F)c1 | 11.5 | 50 | 18.8 | 58.8 | 22.6 | > 100 | 16.6 | 50.3 | 21.6 | > 100 | 37.4 | > 100 | 29.2 | > 100 | 21.1 | > 100 | 25.5 | > 100 | 4.15 | 56.1
N=Nc1c(OC(=O)Nc2cccc(Cl)c2)[nH]c2ccccc12 |  | 44.5 |  | 20 |  | 28 |  | 26.7 |  | 20.3 |  | 19.4 |  | 18.7 |  | 20.1 |  | 14.1 |  | 17.9
Cc1cccc(NC(=O)Cn2cnc3sc(C(=O)OC(C)C)c(C)c3c2=O)c1 | > 50 | > 50 | 25.2 | > 50 | 16.6 | > 50 | 11.2 | 39.5 | 9.73 | 26.6 | > 50 | > 50 | 16.4 | > 50 | 8.21 | 25.2 | 15.6 | > 50 | 17.5 | 39.5
COc1cc(OC)cc(-c2cc(=O)c3c(OC)c(OC)c(OC)c(OC)c3o2)c1 |  | > 100 |  | > 100 |  | > 100 |  | > 100 |  | > 100 |  | 30.6 |  | > 100 |  | > 100 |  | > 100 |  | > 100
COc1ccc(-c2nnc(COc3ccc(C(=O)/C=C/c4ccco4)cc3)o2)cc1 | 1.52 | 7.28 | 3.66 | 14 | 2.33 | 5.41 | 2.99 | 10.4 | 2.12 | 5.03 | 2.23 | 4.32 | 3.33 | 13.8 | 2.87 | 8.16 | 1.82 | 3.36 | 3.04 | 14.5
Cc1ccccc1S(=O)(=O)OC1NS(=O)(=O)c2ccccc21 (centres undefined) |  | > 100 |  | > 100 |  | > 100 |  | > 100 |  | > 100 |  | > 100 |  | > 100 |  | > 100 |  | > 100 |  | > 100
O=S(=O)(CCn1c(Sc2ccccc2)c(Sc2ccccc2)c2ccccc21)c1ccccc1 |  | > 100 |  | > 100 |  | > 100 |  | > 100 |  | > 100 |  | > 100 |  | > 100 |  | > 100 |  | > 100 |  | > 100
O=c1c2sccc2n(CC2COc3ccccc3O2)c(=O)n1O (centres undefined) | 8.1 | > 100 | 4.66 | 41.8 | 14.5 | > 100 | 39 | > 100 | 20.5 | > 100 | 36.8 | > 100 | 23.3 | > 100 | 12.1 | > 100 | 6.54 | 29.2 | 3.81 | 56
O=C1OC(O)[C@@H]2[C@H]1[C@H]1CC[C@@H]2O1 (some centres undefined) | > 100 | > 100 | > 100 | > 100 | > 58.2 | > 94 | > 74.3 | > 100 | > 89.6 | > 100 | 1.21 | 6.31 | 60.8 | > 100 | > 100 | > 100 | 42.9 | > 100 | 45.3 | > 100
COc1cc2c(c(OC)c1OC)-c1ccc(OC)c(=O)cc1C(NC(=O)c1ccc(N=[N+]=[N-])cc1)CC2 (centres undefined) |  | > 100 |  | 0.0613 |  | > 100 |  | 12.5 |  | > 100 |  | 0.0627 |  | > 100 |  | > 100 |  | 18.2 |  | > 90.8
COc1ccc(/C=C(/C#N)n2nnc3cccc(F)c32)cc1 | 0.48 | > 100 | 0.703 | 4.62 | 1.92 | > 100 | 1.37 | 3.84 | 1.31 | > 100 | 0.811 | > 100 | 1.46 | > 100 | 2.39 | 52.9 | 0.533 | 3.02 | 0.206 | 0.638
CCCCCCCCC/C=C1\CCC(CN2CCOCC2)C1=O (centres undefined) |  | 6.28 |  | 21.1 |  | 9.2 |  | 11.2 |  | 16.5 |  | 11.2 |  | 34.7 |  | 3.8 |  | 4.04 |  | 16
CCCCCCCC(=O)SCC/C=C/[C@@H]1CC(=O)NCc2cc(ccn2)C2=N[C@@](C)(CS2)C(=O)N[C@@H](C(C)C)C(=O)O1 | 0.00845 | > 33.3 | 0.00754 | > 11.3 | 0.0125 | 1.02 | 0.05 | > 33.3 | 0.0433 | 0.434 | 0.0513 | 0.147 | 0.0116 |  | 0.0432 | > 33.3 | 0.00468 | 0.0466 | 0.0079 | > 33.3
CCN1CCN(c2nc(C)cc(N(CCNc3ccnc4cc(Cl)ccc34)Cc3ccc4c(c3)OCO4)n2)CC1 | 1.33 | 3.71 | 1.94 | 4.7 | 1.79 | 3.42 | 1.38 | 3.19 | 2.26 | 5.26 | 1.63 | 3.27 | 2.4 | 8.19 | 1.74 | 3.73 | 1.38 | 3.51 | 1.35 | 2.9
Cc1cc(/C=C/c2ccc3cc(N(C)C)ccc3[n+]2C)c(C)n1-c1ccccc1 | 0.0442 | 1.42 | 0.146 | 0.56 | 0.568 | 1.53 | 0.193 | 1.09 | 0.596 | 1.74 | 0.103 | 0.213 | 0.182 | 1.02 | 0.159 | 1.09 | 0.0908 | 2.69 | 0.211 | 1.9
COc1cccc(-c2nc(-c3ccc(NC(=O)C(C)C)cc3)[nH]c2-c2ccnc(Br)c2)c1 | 2.41 | > 100 | 3.2 | 21.3 | 2.78 | > 100 | 4.09 | > 100 | 2.74 | > 100 | 2.81 | 7.59 | 3.45 | > 100 | 2.04 | 80.1 | 2.49 | 7.8 | 0.488 | > 100
O=C(Nc1ccc(Cl)cc1)c1cccc(NC2=C(Cl)C(=O)N(Cc3ccccc3)C2=O)c1 | 3.56 | 14.9 | 15.2 | 35 | 25.7 | > 100 | 4.44 | 17.6 | 14.4 | 27.5 | 21.7 | > 100 | 14.8 | 28 | 2.16 | 13.2 | 6.29 | 19.7 | 8.88 | 25.1
COc1cc(/C=C/c2cc(O)c(C(C)=O)c(O)c2)cc2c1O[C@]1(C)CC[C@@H](O)C(C)(C)[C@H]1C2 | 3.62 | > 100 | 6.26 | 57.5 | 4.17 | 26.2 | 6.26 | 93 | 10.5 | 78.3 | 16.1 | 68.3 | 8.54 | > 100 | 3.03 | 27.6 | 4.56 | 22 | 1.77 | 27
